Patent US9492545B2, “Compositions of statins and omega-3 fatty acids” (Omthera Pharmaceuticals, Inc., priority 2012, dated 2016)

What was measured:
[1] = Stability testing of statins dissolved in PUFA free acid solvent system at 25° C., 60% RH (Example 5); assay type: physicochemical
Description: The compositions were then mixed until full dissolution was observed, using a magnetic stir bar and sonication for 30-60 second intervals, taking care to maintain a nitrogen headspace over the solution throughout processing. […] Vials were covered with foil to protect from light and stored at 25° C., 60% RH. One vial of each of the three compositions was retrieved at each timepoint for testing. Procedures as listed in the USP Monograph for Omega-3-Acid Ethyl Ester Capsules were followed for measuring quantities of acid value, peroxide value, and absorbance for fats and fixed oils.

[2] = Solubility of statins in PUFA free acid solvent system, HPLC of supernatant (Example 4); assay type: physicochemical; conditions: 2 mL PUFA free acid solvent; after addition of about 313 mg; before overnight standing
Description: For this study, ten vials were prepared such that 5 vials contained 2 mL of Lovaza oil and 5 vials contained 2 mL of PUFA free acid solvent system. About 20 mg of each statin were added to one Lovaza oil vial and to one PUFA free acid solvent system vial. Vials containing the samples were blanketed with nitrogen, then sealed. The vials were then sonicated for 1 hour or until contents appeared clear. After sonication, vials which remained clear received additional 20 mg aliquots of their respective statin and were again blanketed with nitrogen. […] The samples were centrifuged and the supernatant was assayed for the respective statin by HPLC.

[3] = Solubility of statins in various pH buffers (Example 1)
[4] = Solubility of statins in omega-3 ethyl ester solvent system, Lovaza fill (Example 3); conditions: sonicated 1 hour, overnight, supernatant by HPLC

| Statin in oil, content ([1]; t = 0) [mg/g] | Statin in oil, percent of total ([1]; t = 0) [%] | Statin in oil, content ([1]; t = 1 week) [mg/g] | Statin in oil, percent of total ([1]; t = 1 week) [%] | Statin in oil, content ([1]; t = 2 week) [mg/g] | Statin in oil, percent of total ([1]; t = 2 week) [%] | Appearance of vial after repeated statin additions and sonication [2] | Solubility ([3]; acid phthalate buffer pH 4.0, T = 1 Week) | pH of maximal aqueous solubility ([3]; across the tested pH buffers) | Aqueous solubility (in words) ([3]; overall across pH buffers, rosuvastatin at time zero) | Initial solubility in PUFA ethyl ester solvent system, Concentration [4] [µg/mL] | Structure (SMILES) |
| --- | --- | --- | --- | --- | --- | --- | --- | --- | --- | --- | --- |
| 8.738 | 100 | 8.275 | 100 | 7.839 | 100 |  |  |  |  |  | CC(C)c1c(C(=O)Nc2ccccc2)c(-c2ccccc2)c(-c2ccc(F)cc2)n1CC[C@@H](O)C[C@@H](O)CC(=O)[O-].CC(C)c1c(C(=O)Nc2ccccc2)c(-c2ccccc2)c(-c2ccc(F)cc2)n1CC[C@@H](O)C[C@@H](O)CC(=O)[O-].[Ca+2] [Atorvastatin, Atorvastatin Calcium] |
|  |  |  |  |  |  | still remained clear |  |  |  |  | CC[C@H](C)C(=O)O[C@H]1C[C@H](O)C=C2C=C[C@H](C)[C@H](CC[C@@H](O)C[C@@H](O)CC(=O)O)[C@H]21 [Pravastatin Sodium] |
| 6.481 | 100 | 6.416 | 100 | 6.505 | 100 |  | 0.002 | ~7.0 | significant aqueous solubility | 1 | CC(C)c1nc(N(C)S(C)(=O)=O)nc(-c2ccc(F)cc2)c1/C=C/[C@@H](O)C[C@@H](O)CC(=O)[O-].CC(C)c1nc(N(C)S(C)(=O)=O)nc(-c2ccc(F)cc2)c1/C=C/[C@@H](O)C[C@@H](O)CC(=O)[O-].[Ca+2] [Rosuvastatin, Rosuvastatin Calcium] |
